Results taken from US5180739A, “Use of 3-oxygermylpropionic acid to treat and prevent diabetes-dependent type of autoimmune diseases” (Sanwa Kagaku Kenkyusho Co., Ltd., priority 1990, dated 1993).

Assays:
[1] = tested on: SD rats; experiment: Acute toxicity test, oral administration (LD50), rats; format: in vivo
Method: (§1) Acute and subacute (chronic) toxicity tests were performed using SD rats and mice which has received 3-oxygermylpropionic acid represented by Formula I (hereinafter referred to Compound a) and the above-mentioned primary composition (hereinafter called Composition b).
(§2) For experimentation, a group of 8-10 animals were used.
(§3) Oral administration (no significant
(§4) difference between Compound -a and […]

[2] = tested on: mice with streptozosin-induced diabetes; experiment: Amount of insulin in the pancreas of mice with STZ-induced diabetes; format: in vivo, AKR/J1 mouse; conditions: rejection rate of 5%
Method: (§5) Continuous 5-day administration of streptozocin (STZ) to an AKR/J1 line mice, that ia an inbred mice with a spontaneous symptom of leukemia, can cause it to take a disease similar to human Type I diabetes (dependent upon insulin). Tests were performed for the purpose of going into influence Compound a and Composition b have on such a mice with streptozosin-induced diabetes.
(§6) Streptozocin (STZ) was continuously administrated to the abdominal cavity of a (masculine) mouse belonging to AKR/J1 at a dose of 40 mg/kg for 5 days to induce an increase in the concentration of glucose in the blood and a decrease in the amount of insulin in the pancreas.
(§7) With Compound a dissolved in a phosphate buffer solution with pH 7.4, the concentration of glucose in the blood was measured at 7 days, 14 days and 21 days from STZ dosing, using a GOD-PAP kit (made by Boehringer Mannheim) based on the glucose oxidase process for measurement. In addition, the amount of insulin in the pancreas, extracted by the acid-ethanol process, was assayed with a radio immuno assay kit (made by Pharmacia Aktiebolag) based on an immunoassay process making use of a competitive reaction by ^125 I-labeled insulin (see Soeldner, JS & Slone, D, "Diabetes", Vol. 14, pp. 771-779, 1985).
(§8) A similar mouse was caused to develop STZ-induced diabetes in a similar manner as referred to in Test Example 1.
(§9) A solution of Compound a in a phosphate buffer with pH 7.4 was continuously administered to the abdominal cavity of the animal at 5 mg/kg over 7 days from STZ dosing.
(§10) At 7 days, 14 days and 21 days from STZ dosing, the concentration of glucose in the blood and the amount of insulin in the pancreas were measured in similar manners as mentioned in Test Example 1.
(§11) A solution of Compound a in a phosphate buffer with pH 7.4 was continuously administered to the abdominal cavity of the animal at 5 mg/kg 15 days from the 7th day after STZ dosing.

[3] = tested on: mice with streptozosin-induced diabetes; experiment: Concentration of glucose in the blood of mice with STZ-induced diabetes; format: in vivo, AKR/J1 mouse; conditions: rejection rate of 5%
Method: as §5, §6, §7, §8, §9, §10, §11

[4] = tested on: Langerhans' islands; experiment: Degree of cellular infiltration in the Langerhans' islands of mice with STZ-induced diabetes; format: in vivo, AKR/J1 mouse; conditions: for Degrees of pancreatitis, 0 (0%) / Degrees of pancreatitis, I (0-25%) / Degrees of pancreatitis, II (25-50%) / Degrees of pancreatitis, III (50-100%) / Incidence of pancreatitis (I-III): STZ + a, at 21 days; for Incidence of pancreatitis (I-III): STZ + buffer 68
Method: as §5
Similar mice were caused to develop STZ-induced diabetes in a similar manner as described in Test Example 1.
A solution of Compound a in a similar phosphate buffer with pH 7.4 as used in Test Example 1 was continuously administrated at a rejection rate of 5% to the abdominal cavities according to similar dosing schemes as applied in Test Examples 1, 2 and 3.
At 21 days from STZ dosing, the degree of cellular infiltration in the Langerhans' islands were assayed under an optical microscope.

[5] = tested on: mice; experiment: Acute toxicity test, oral administration (LD50), mice; format: in vivo
Method: as §1, §2, §3, §4

[6] = tested on: SD male rats; experiment: Subacute toxicity test, oral, over 3 months; format: in vivo
Method: as §1, §2
Over 3 months, Compound a and Composition b were orally administered to two groups of SD male rats at doses of 256, 380, 640, 1300, 1600 and 4000 mg/kg/day to determined which dose to have no toxic influence at all and which dose to induce positive poisoning.

[7] = tested on: SD rats and mice; experiment: Acute toxicity test, comparison and general symptoms; format: in vivo
Method: as §1, §2

[8] = Japanese Patent Kokai Publication No. Sho 61-161123; cited from earlier work

Substance: 3-oxygermylpropionic acid [Compound a]
- LD50 ([1]; female): ≥ 7,050 mg/kg
- LD50 ([1]; male): ≥ 7,700 mg/kg
- amount of insulin in the pancreas (decreased by STZ) ([2]; Test Example 1, 21 days from dosing, FIG. 1(b)): significant improvements
- amount of insulin in the pancreas (decreased by STZ) ([2]; Test Example 2, 5 mg/kg to the abdominal cavity over 7 days from STZ dosing, 21 days from dosing, FIG. 2(b)): significant improvements
- amount of insulin in the pancreas (decreased by STZ) ([2]; Test Example 3, 5 mg/kg to the abdominal cavity 15 days from the 7th day after STZ dosing, 21 days from dosing): significant improvements
- concentration of glucose in the blood (increased by STZ) ([3]; Test Example 1, 21 days from dosing, FIG. 1(a)): significant improvements
- concentration of glucose in the blood (increased by STZ) ([3]; Test Example 2, 5 mg/kg to the abdominal cavity over 7 days from STZ dosing, 21 days from dosing, FIG. 2(a)): significant improvements
- concentration of glucose in the blood (increased by STZ) ([3]; Test Example 3, 5 mg/kg to the abdominal cavity 15 days from the 7th day after STZ dosing, 21 days from dosing, FIG. 3(a)): significant improvements
- Degrees of pancreatitis, 0 (0%) ([4]; 1-7 days): 70%
- Degrees of pancreatitis, I (0-25%) ([4]; 1-7 days): 23%
- Degrees of pancreatitis, II (25-50%) ([4]; 1-7 days): 4%
- Degrees of pancreatitis, III (50-100%) ([4]; 1-7 days): 3%
- Incidence of pancreatitis (I-III) ([4]; 1-7 days): 30%
- Degrees of pancreatitis, 0 (0%) ([4]; 1-21 days (first line)): 70%
- Degrees of pancreatitis, I (0-25%) ([4]; 1-21 days (first line)): 25%
- Degrees of pancreatitis, II (25-50%) ([4]; 1-21 days (first line)): 4%
- Degrees of pancreatitis, III (50-100%) ([4]; 1-21 days (first line)): 1%
- Incidence of pancreatitis (I-III) ([4]; 1-21 days (first line)): 30%
- Degrees of pancreatitis, 0 (0%) ([4]; third line, 1-21 days): 68%
- Degrees of pancreatitis, I (0-25%) ([4]; third line, 1-21 days): 30%
- Degrees of pancreatitis, II (25-50%) ([4]; third line, 1-21 days): 1%
- Degrees of pancreatitis, III (50-100%) ([4]; third line, 1-21 days): 1%
- Incidence of pancreatitis (I-III) ([4]; third line, 1-21 days): 32%
- infiltrated cells in the Langerhans' islands (increased by STZ dosing) ([4]; Test Example 4, 21 days from dosing): successfully decreased the infiltrated cells
- LD50 ([5]; female): ≥ 5,800 mg/kg
- LD50 ([5]; male): ≥ 5,600 mg/kg
- dose inducing positive poisoning ([6]; SD male rats, oral, 3 months, daily): 1600 mg/kg
- reversibility of toxic symptoms without drug treatment ([6]; rat, in vivo): Toxic symptoms then disappeared
- dose with no toxic influence whatsoever ([6]; rat, in vivo, po, 131400 min): 256 mg/kg
- general symptoms ([7]; in vivo): general symptoms of appeasement, diarrhea, vomiting and typhlectasis
- difference in acute toxicity between Compound a and Composition b ([7]; oral, mice and rats): no significant difference
- immunity-accommodative actions [8]: immunity-accommodative actions
